Assay results as given in patent US11564969B2, “Immunorhelin compounds for intracellular infections” (ISR IMMUNE SYSTEM REGULATION HOLDING AB (PUBL), priority 2017, dated 2023).
Where two headings read alike, the source gives them in different places. Square brackets hold non-standard residues; d marks the D form. Peptide text beside a SMILES is read from it. * marks the point of attachment. d2Nal = N[C@H](Cc1ccc2ccccc2c1)C(=O)O; pGlu = O=C1CC[C@@H](C(=O)O)N1; tBu = CC(C)(C)*

Tests used:
[1] = biological target: T1, GnRHR (Homo sapiens, UniProt P30968)
T1 sequence (P30968 1-328): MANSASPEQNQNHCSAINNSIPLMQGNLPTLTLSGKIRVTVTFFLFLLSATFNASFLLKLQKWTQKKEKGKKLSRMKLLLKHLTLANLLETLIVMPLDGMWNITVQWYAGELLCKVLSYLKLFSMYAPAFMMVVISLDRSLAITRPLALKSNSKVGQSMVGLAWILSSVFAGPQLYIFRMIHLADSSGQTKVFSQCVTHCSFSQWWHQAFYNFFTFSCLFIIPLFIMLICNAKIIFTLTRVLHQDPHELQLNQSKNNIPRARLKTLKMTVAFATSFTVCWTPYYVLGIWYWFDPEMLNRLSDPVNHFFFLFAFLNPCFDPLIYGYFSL

[2] = Solubility analysis in PBS (Analysis Method B); type: physicochemical; conditions: pH 7.4
Description: The solubility of compounds of the invention was tested as described in the general methods. Solubility was then graded according to a rating between 1 to 5, where 1 is most soluble and 5 is least soluble.

Structure (SMILES)	GNRHR Stimulation at 1 μM ([1]; 1000.0)	Solubility grading [2]	GNRHR Stimulation at 1 μM ([1]; 1 μM, calcium assay, CHO-K1 cells)
CCNC(=O)[C@@H]1CCCN1C(=O)[C@H](CCCNC(=N)N)NC(=O)[C@H](CC(C)C)NC(=O)[C@@H](COC(C)(C)C)NC(=O)[C@H](Cc1c[nH]cn1)NC(=O)[C@H](CO)NC(=O)[C@H](Cc1c[nH]c2ccccc12)NC(=O)[C@H](Cc1c[nH]cn1)NC(=O)[C@@H]1CCC(=O)N1 [Compound 6, pGlu-His-Trp-Ser-His-D-Ser(tBu)-Leu-Arg-Pro-NHEt] ([pGlu]HWSH[dS](tBu)LRP-NHEt)	88 percentage	1	–
CCNC(=O)[C@@H]1CCCN1C(=O)[C@H](CCCNC(=N)N)NC(=O)[C@H](Cc1c[nH]c2ccccc12)NC(=O)[C@@H](COC(C)(C)C)NC(=O)[C@H](Cc1ccc(O)cc1)NC(=O)[C@H](CO)NC(=O)[C@H](Cc1c[nH]c2ccccc12)NC(=O)[C@H](Cc1c[nH]cn1)NC(=O)[C@@H]1CCC(=O)N1 [Compound 8, pGlu-His-Trp-Ser-Tyr-D-Ser(tBu)-Trp-Arg-Pro-NHEt] ([pGlu]HWSY[dS](tBu)WRP-NHEt)	86 percentage	2	–
CCNC(=O)[C@@H]1CCCN1C(=O)[C@H](Cc1ccc(O)cc1)NC(=O)[C@H](CC(C)C)NC(=O)[C@@H](COC(C)(C)C)NC(=O)[C@H](Cc1ccc(O)cc1)NC(=O)[C@H](CO)NC(=O)[C@H](Cc1c[nH]c2ccccc12)NC(=O)[C@H](Cc1c[nH]cn1)NC(=O)[C@@H]1CCC(=O)N1 [Compound 9, pGlu-His-Trp-Ser-Tyr-D-Ser(tBu)-Leu-Tyr-Pro-NHEt] ([pGlu]HWSY[dS](tBu)LYP-NHEt)	78 percentage	1	–
CCNC(=O)[C@@H]1CCCN1C(=O)[C@H](CCCNC(=N)N)NC(=O)[C@H](Cc1c[nH]c2ccccc12)NC(=O)[C@@H](COC(C)(C)C)NC(=O)[C@H](Cc1c[nH]cn1)NC(=O)[C@H](CO)NC(=O)[C@H](Cc1c[nH]c2ccccc12)NC(=O)[C@H](Cc1c[nH]cn1)NC(=O)[C@@H]1CCC(=O)N1 [Compound 10, pGlu-His-Trp-Ser-His-D-Ser(tBu)-Trp-Arg-Pro-NHEt] ([pGlu]HWSH[dS](tBu)WRP-NHEt)	81 percentage	1	–
CCNC(=O)[C@@H]1CCCN1C(=O)[C@H](Cc1ccc(O)cc1)NC(=O)[C@H](CC(C)C)NC(=O)[C@@H](COC(C)(C)C)NC(=O)[C@H](Cc1c[nH]cn1)NC(=O)[C@H](CO)NC(=O)[C@H](Cc1c[nH]c2ccccc12)NC(=O)[C@H](Cc1c[nH]cn1)NC(=O)[C@@H]1CCC(=O)N1 [Compound 11, pGlu-His-Trp-Ser-His-D-Ser(tBu)-Leu-Tyr-Pro-NHEt] ([pGlu]HWSH[dS](tBu)LYP-NHEt)	76 percentage	1	–
CCNC(=O)[C@@H]1CCCN1C(=O)[C@H](Cc1ccc(O)cc1)NC(=O)[C@H](Cc1c[nH]c2ccccc12)NC(=O)[C@@H](COC(C)(C)C)NC(=O)[C@H](Cc1ccc(O)cc1)NC(=O)[C@H](CO)NC(=O)[C@H](Cc1c[nH]c2ccccc12)NC(=O)[C@H](Cc1c[nH]cn1)NC(=O)[C@@H]1CCC(=O)N1 [Compound 12, pGlu-His-Trp-Ser-Tyr-D-Ser(tBu)-Trp-Tyr-Pro-NHEt] ([pGlu]HWSY[dS](tBu)WYP-NHEt)	80 percentage	4	–
CCNC(=O)[C@@H]1CCCN1C(=O)[C@H](Cc1ccc(O)cc1)NC(=O)[C@H](Cc1c[nH]c2ccccc12)NC(=O)[C@@H](COC(C)(C)C)NC(=O)[C@H](Cc1c[nH]cn1)NC(=O)[C@H](CO)NC(=O)[C@H](Cc1c[nH]c2ccccc12)NC(=O)[C@H](Cc1c[nH]cn1)NC(=O)[C@@H]1CCC(=O)N1 [Compound 13, pGlu-His-Trp-Ser-His-D-Ser(tBu)-Trp-Tyr-Pro-NHEt] ([pGlu]HWSH[dS](tBu)WYP-NHEt)	87 percentage	3	–
CC(C)C[C@H](NC(=O)[C@@H](Cc1ccc2ccccc2c1)NC(=O)[C@H](Cc1c[nH]cn1)NC(=O)[C@H](CO)NC(=O)[C@H](Cc1c[nH]c2ccccc12)NC(=O)[C@H](Cc1c[nH]cn1)NC(=O)[C@@H]1CCC(=O)N1)C(=O)N[C@@H](CCCNC(=N)N)C(=O)N1CCC[C@H]1C(=O)NCC(N)=O [Compound 23, pGlu-His-Trp-Ser-His-D-Nal-Leu-Arg-Pro-Gly-amide] ([pGlu]HWSH[d2Nal]LRPG-NH2)	106 percentage	1	–
N=C(N)NCCC[C@H](NC(=O)[C@H](Cc1c[nH]c2ccccc12)NC(=O)[C@@H](Cc1ccc2ccccc2c1)NC(=O)[C@H](Cc1ccc(O)cc1)NC(=O)[C@H](CO)NC(=O)[C@H](Cc1c[nH]c2ccccc12)NC(=O)[C@H](Cc1c[nH]cn1)NC(=O)[C@@H]1CCC(=O)N1)C(=O)N1CCC[C@H]1C(=O)NCC(N)=O [Compound 24, pGlu-His-Trp-Ser-Tyr-D-Nal-Trp-Arg-Pro-Gly-amide] ([pGlu]HWSY[d2Nal]WRPG-NH2)	87 percentage	5	–
CC(C)C[C@H](NC(=O)[C@@H](Cc1ccc2ccccc2c1)NC(=O)[C@H](Cc1ccc(O)cc1)NC(=O)[C@H](CO)NC(=O)[C@H](Cc1c[nH]c2ccccc12)NC(=O)[C@H](Cc1c[nH]cn1)NC(=O)[C@@H]1CCC(=O)N1)C(=O)N[C@@H](Cc1ccc(O)cc1)C(=O)N1CCC[C@H]1C(=O)NCC(N)=O [Compound 25, pGlu-His-Trp-Ser-Tyr-D-Nal-Leu-Tyr-Pro-Gly-amide] ([pGlu]HWSY[d2Nal]LYPG-NH2)	82 percentage	4	–
N=C(N)NCCC[C@H](NC(=O)[C@H](Cc1c[nH]c2ccccc12)NC(=O)[C@@H](Cc1ccc2ccccc2c1)NC(=O)[C@H](Cc1c[nH]cn1)NC(=O)[C@H](CO)NC(=O)[C@H](Cc1c[nH]c2ccccc12)NC(=O)[C@H](Cc1c[nH]cn1)NC(=O)[C@@H]1CCC(=O)N1)C(=O)N1CCC[C@H]1C(=O)NCC(N)=O [Compound 27, pGlu-His-Trp-Ser-His-D-Nal-Trp-Arg-Pro-Gly-amide] ([pGlu]HWSH[d2Nal]WRPG-NH2)	108 percentage	1	–
CC(C)C[C@H](NC(=O)[C@@H](Cc1ccc2ccccc2c1)NC(=O)[C@H](Cc1c[nH]cn1)NC(=O)[C@H](CO)NC(=O)[C@H](Cc1c[nH]c2ccccc12)NC(=O)[C@H](Cc1c[nH]cn1)NC(=O)[C@@H]1CCC(=O)N1)C(=O)N[C@@H](Cc1ccc(O)cc1)C(=O)N1CCC[C@H]1C(=O)NCC(N)=O [Compound 28, pGlu-His-Trp-Ser-His-D-Nal-Leu-Tyr-Pro-Gly-amide] ([pGlu]HWSH[d2Nal]LYPG-NH2)	95 percentage	2	–
NC(=O)CNC(=O)[C@@H]1CCCN1C(=O)[C@H](Cc1ccc(O)cc1)NC(=O)[C@H](Cc1c[nH]c2ccccc12)NC(=O)[C@@H](Cc1ccc2ccccc2c1)NC(=O)[C@H](Cc1ccc(O)cc1)NC(=O)[C@H](CO)NC(=O)[C@H](Cc1c[nH]c2ccccc12)NC(=O)[C@H](Cc1c[nH]cn1)NC(=O)[C@@H]1CCC(=O)N1 [Compound 30, pGlu-His-Trp-Ser-Tyr-D-Nal-Trp-Tyr-Pro-Gly-amide] ([pGlu]HWSY[d2Nal]WYPG-NH2)	12 percentage	1	–
NC(=O)CNC(=O)[C@@H]1CCCN1C(=O)[C@H](Cc1ccc(O)cc1)NC(=O)[C@H](Cc1c[nH]c2ccccc12)NC(=O)[C@@H](Cc1ccc2ccccc2c1)NC(=O)[C@H](Cc1c[nH]cn1)NC(=O)[C@H](CO)NC(=O)[C@H](Cc1c[nH]c2ccccc12)NC(=O)[C@H](Cc1c[nH]cn1)NC(=O)[C@@H]1CCC(=O)N1 [Compound 33, pGlu-His-Trp-Ser-His-D-Nal-Trp-Tyr-Pro-Gly-amide] ([pGlu]HWSH[d2Nal]WYPG-NH2)	67 percentage	2	–
CCNC(=O)[C@@H]1CCCN1C(=O)[C@H](CCCNC(=N)N)NC(=O)[C@H](CC(C)C)NC(=O)[C@@H](CC(C)C)NC(=O)[C@H](Cc1c[nH]cn1)NC(=O)[C@H](CO)NC(=O)[C@H](Cc1c[nH]c2ccccc12)NC(=O)[C@H](Cc1c[nH]cn1)NC(=O)[C@@H]1CCC(=O)N1 [Compound 42, pGlu-His-Trp-Ser-His-D-Leu-Leu-Arg-Pro-NHEt] ([pGlu]HWSH[dL]LRP-NHEt)	102 percentage	1	–
CCNC(=O)[C@@H]1CCCN1C(=O)[C@H](CCCNC(=N)N)NC(=O)[C@H](Cc1c[nH]c2ccccc12)NC(=O)[C@@H](CC(C)C)NC(=O)[C@H](Cc1ccc(O)cc1)NC(=O)[C@H](CO)NC(=O)[C@H](Cc1c[nH]c2ccccc12)NC(=O)[C@H](Cc1c[nH]cn1)NC(=O)[C@@H]1CCC(=O)N1 [Compound 44, pGlu-His-Trp-Ser-Tyr-D-Leu-Trp-Arg-Pro-NHEt] ([pGlu]HWSY[dL]WRP-NHEt)	111 percentage	2	–
CCNC(=O)[C@@H]1CCCN1C(=O)[C@H](Cc1ccc(O)cc1)NC(=O)[C@H](CC(C)C)NC(=O)[C@@H](CC(C)C)NC(=O)[C@H](Cc1ccc(O)cc1)NC(=O)[C@H](CO)NC(=O)[C@H](Cc1c[nH]c2ccccc12)NC(=O)[C@H](Cc1c[nH]cn1)NC(=O)[C@@H]1CCC(=O)N1 [Compound 45, pGlu-His-Trp-Ser-Tyr-D-Leu-Leu-Tyr-Pro-NHEt] ([pGlu]HWSY[dL]LYP-NHEt)	105 percentage	2	–
CC(C)C[C@H](NC(=O)[C@@H](Cc1ccc2ccccc2c1)NC(=O)[C@H](Cc1ccc(O)cc1)NC(=O)[C@H](CO)NC(=O)[C@H](Cc1c[nH]c2ccccc12)NC(=O)[C@H](Cc1c[nH]cn1)NC(=O)[C@@H]1CCC(=O)N1)C(=O)N[C@@H](CCCNC(=N)N)C(=O)N1CCC[C@H]1C(=O)NCC(N)=O [Nafarelin, nafarelin, reference compound]	–	–	100 (n = 2) percentage
